Measurements: ChEMBL document CHEMBL4622944 (Bioorg Med Chem Lett, 2020)

How the values were obtained:
Assay type in all cases: functional, cell-based
[1] = tested on: A549; experiment: Antiproliferative activity against human A549 cells assessed as reduction in cell viability by MTT assay
[2] = tested on: PC-3; experiment: Antiproliferative activity against human PC3 cells assessed as reduction in cell viability by MTT assay
[3] = tested on: HCT-116; experiment: Antiproliferative activity against human HCT116 cells assessed as reduction in cell viability by MTT assay

Row | SMILES | IC50 [1] | IC50 [2] | IC50 [3]
1 | Cn1c(=O)c(=O)n(C2CCCC2)c2nc(N/N=C/c3ccccc3Cl)ncc21 | 9.86 µM | 16.3 µM | 14 µM
2 | Cn1c(=O)c(=O)n(C2CCCC2)c2nc(N/N=C/c3cc([N+](=O)[O-])ccc3Cl)ncc21 | 8.78 µM | 9.26 µM | 5.61 µM
3 | Cc1cccc(/C=N/Nc2ncc3c(n2)n(C2CCCC2)c(=O)c(=O)n3C)c1 | 34.5 µM | 53.6 µM | > 100 µM
4 | Cn1c(=O)c(=O)n(C2CCCC2)c2nc(N/N=C/c3ccc(C(F)(F)F)cc3)ncc21 | 40.6 µM | 23.6 µM | 29 µM
5 | Cn1c(=O)c(=O)n(C2CCCC2)c2nc(N/N=C/c3ccc(F)cc3Br)ncc21 | 6.59 µM | 9.25 µM | 8.39 µM
6 | Cn1c(=O)c(=O)n(C2CCCC2)c2nc(N/N=C/c3cccc(O)c3)ncc21 | > 100 µM | 36.3 µM | 37.2 µM
7 | CSc1ccc(/C=N/Nc2ncc3c(n2)n(C2CCCC2)c(=O)c(=O)n3C)cc1 | 14.1 µM | 21 µM | 9.01 µM
8 | Cn1c(=O)c(=O)n(C2CCCC2)c2nc(N/N=C/c3ccco3)ncc21 | > 100 µM | 72.2 µM | 78.7 µM
9 | Cn1c(=O)c(=O)n(C2CCCC2)c2nc(N/N=C/c3cccc([N+](=O)[O-])c3)ncc21 | 12.3 µM | 20.3 µM | 15.2 µM
10 | Cn1c(=O)c(=O)n(C2CCCC2)c2nc(N/N=C/c3ccccc3)ncc21 | > 100 µM | 48.2 µM | > 100 µM
11 | Cn1c(=O)c(=O)n(C2CCCC2)c2nc(N/N=C/c3ccc(O)cc3)ncc21 | > 100 µM | > 100 µM | 72.5 µM
12 | Cn1c(=O)c(=O)n(C2CCCC2)c2nc(N/N=C/c3ccc(O)c(Br)c3)ncc21 | 12.8 µM | 11.6 µM | 17.7 µM
13 | Cn1c(=O)c(=O)n(C2CCCC2)c2nc(N/N=C/c3ccc(F)c(Cl)c3)ncc21 | 9.41 µM | 8.55 µM | 9.02 µM
14 | COc1ccc(/C=N/Nc2ncc3c(n2)n(C2CCCC2)c(=O)c(=O)n3C)c(OC)c1 | > 100 µM | > 100 µM | > 100 µM
15 | Cn1c(=O)c(=O)n(C2CCCC2)c2nc(N/N=C/c3cccs3)ncc21 | > 100 µM | 75.6 µM | 52.6 µM
